Measured values published in patent US11613558B2, “Peptides and pharmaceutical compositions for treating eye diseases” (Yuyu Pharma, Inc., priority 2018, dated 2023).
Square brackets hold non-standard residues; d marks the D form. Peptide text beside a SMILES is read from it. Hyp = O=C(O)[C@@H]1C[C@@H](O)CN1; hSer = N[C@@H](CCO)C(=O)O

Legend:
[1] = tested on: rats with dry eye syndrome (extraorbital lacrimal gland excision, ELGE); assay: Amount of tear secretion (Schirmer test, cobalt chloride paper) in ELGE rats with dry eye syndrome; type: in vivo, rat; conditions: for Tear Volumes, Day 7 / Tear Volumes, Day 14: ELGE rats, 3 mg/ml, 5 μl/eye twice daily; for Tear Volumes, Day 7: day 7 of administration; for Tear Volumes, Day 14: day 14 of administration; for Change in amount of tear secretion as compared with the ELGE control group: 3% solution as printed, after administration for 14 days
Description: (§1) In order to evaluate the eye protection effect on dry eye syndrome by YDE-001 to YDE-028 prepared in Example 1, a total of 320 Sprague-Dawley-type male rats (OrientBio, Seungnam, Korea) were adapted for 7 days. Thereafter, dry eye syndrome was induced in 264 test rats through extraorbital lacrimal gland excision (hereinafter, ELGE). 8 test rats without the eye abnormality were subjected to a sham operation as a control group.
(§2) The rat was systemically anesthetized by inhaling a mixed gas of 2% to 3% of isoflurane (Hana Pharm. Co., Hwasung, Korea), 70% of N2O, and 28.6% of O2 using a rodent anesthesia machine (Surgivet, Waukesha, Wis., USA) and a ventilator (Model 687, Harvard Apparatus, Cambridge, UK). Thereafter, the extraorbital lacrimal gland located in the subdermal area above the masseter muscle and […] was excised through a transverse incision in a size of 10 mm on the anterior part of the left ear tragus. The skin was sutured by a general method. […] After 6 days from the ELGE operation, it was checked through the Schirmer test by measuring the amount of tear secretion whether dry eye syndrome had been induced. Meanwhile, each rat of the control group with the sham operation was checked for the presence and location of the extraorbital lacrimal gland through a skin incision, and the skin was then sutured without the excision thereof (FIG. 4).
(§3) In addition, in order to evaluate the eye protection effect on dry eye syndrome by YDE-029 to YDE-043 prepared in Example 1, a total of 200 Sprague-Dawley-type male rats (OrientBio, Seungnam, Korea) were adapted for 7 days. Dry eye syndrome was induced in 165 test rats through the ELGE. 8 test rats without the eye abnormality were subjected to the sham operation as a control group. The ELGE was carried out as described above.
(§4) For YDE-001 to YDE-028, YY-102 and the 28 YDE-series were each dissolved in physiological saline at a concentration of 3 mg/ml and administered at a dose of 5 μl/eye at 9:30 am and 3:30 pm daily for 14 days after 7 days from the ELGE operation for a total of 28 times. The DS solution was dissolved in physiological saline at a concentration of 30 mg/ml and administered at a dose of […] twice a day for 14 days after 7 days from the ELGE operation for a total of 28 times. For the sham control and the ELGE control groups, the same stimulation as the administration was applied. In order to prevent excessive eye dryness, the same volume of physiological saline was applied in the same manner in place of the test substances.
as §4, with “Further, for YDE-029 to YDE-043,” for “For YDE-001 to YDE-028,”, “YDE-029 to YDE-043, YY-102 and” for “YDE-001 to YDE-028, YY-102 and”, “and the 15 YDE-series were” for “and the 28 YDE-series were”, “the test substances (FIG. 7).” for “the test substances.”
After 6 days from the ELGE surgery, the changes in the amount of tear secretion were measured at day 7 and day 14 after the administration of YDE-001 to YDE-043. The amount of tear secretion was measured by the […] travel distance of tears absorbed by cobalt chloride paper in a size of 1×15 mm (Toyo Roshi Kaisha, Japan).
The cobalt chloride paper was placed in the lateral canthus of a rat for 60 seconds to absorb tears (FIG. 9). The length of the area absorbed from the corner of the cobalt chloride paper was measured with an electronic digital caliper (Mytutoyo, Tokyo, Japan) (FIG. 8).

[2] = tested on: cornea of rats with dry eye syndrome (ELGE); assay: Corneal permeability of fluorescent dye (corneal damage) in ELGE rats with dry eye syndrome; type: in vivo, rat; conditions: 5 μl/eye twice daily, day 14
Description: as §1, §2, §3, §4
as §4, with “Further, for YDE-029 to YDE-043,” for “For YDE-001 to YDE-028,”, “YDE-029 to YDE-043, YY-102 and” for “YDE-001 to YDE-028, YY-102 and”, “and the 15 YDE-series were” for “and the 28 YDE-series were”, “the test substances (FIG. 7).” for “the test substances.”
After YDE-001 to YDE-028 were each administered to the eyes […], the changes in the corneal permeability were checked.
In order to measure the corneal permeability, Zolethyl 50™ (Virbac Lab., Carros, France), an animal anesthetic, was intraperitoneally injected at a dose of 25 mg/kg. Thereafter, saline containing a 1% (v/v) fluorescent solution (fluorescein sodium salt, Tokyo Kasei Kogyo Co., Tokyo, Japan) was applied to the eyes at a dose of 5 μl/eye. The eyes thus treated were closed and fixed with a tape. After 1 hour, the remaining fluorescent solution was removed using a cotton swab (FIG. 12). […]

[3] = Stability in aqueous solution under long-term storage conditions (related substances); type: physicochemical; conditions: 25° C., 75% RH
Protocol: In order to confirm the stability of each test substance in an aqueous solution, […] of each sample was dissolved in 1 ml of water to a concentration of 1 mg/ml, which was then charged to a glass vial, plugged with a rubber cap, sealed with an aluminum cap, and stored under long-term storage conditions (25° C., 75% RH). The stability of the test substance was evaluated by measuring the amount of related substances at the time of one week, two weeks, four weeks, eight weeks, and twelve weeks under the long-term storage conditions.

[4] = Table 4, study of YDE-001 to YDE-028
[5] = Table 6, study of YDE-001 to YDE-028, 3 mg/ml
[6] = Table 5, study of YDE-029 to YDE-043
[7] = Table 7, study of YDE-029 to YDE-043, 3 mg/ml

Amount of related substances (after 12 weeks) [3] [%]	Structure (SMILES)	Tear Volumes, Day 7 [1, 4] [mm^3]	Tear Volumes, Day 14 [1, 4] [mm^3]	Permeability of fluorescent dye [2, 5] [%]	Change in amount of tear secretion as compared with the ELGE control group ([1]; study of YDE-001 to YDE-028)	Tear Volumes, Day 7 [1, 6] [mm^3]	Tear Volumes, Day 14 [1, 6] [mm^3]	Change in amount of tear secretion as compared with the ELGE control group ([1]; study of YDE-029 to YDE-043)	Permeability of fluorescent dye [2, 7] [%]
10.15	CC(C)C[C@H](NC(=O)CNC(=O)[C@H](CCO)NC(=O)[C@H](CCC(N)=O)NC(=O)CNC(=O)[C@@H]1C[C@@H](O)CN1)C(=O)N[C@@H](C)C(=O)NCC(=O)N1CCC[C@H]1C(=O)N[C@@H](CCCCN)C(=O)O [YDE-026] (H-[Hyp]GQ[hSer]GLAGPK-OH)	4.32 ± 1.47	6.01 ± 1.83	22.63 ± 11.23	–	–	–	–	–
12.74	COC(=O)C[C@H](NC(=O)[C@H](CCC(N)=O)NC(=O)CNC(=O)[C@@H]1C[C@@H](O)CN1)C(=O)NCC(=O)N[C@@H](CC(C)C)C(=O)N[C@@H](C)C(=O)NCC(=O)N1CCC[C@H]1C(=O)N[C@@H](CCCCN)C(=O)O [YDE-027] (H-[Hyp]GQD(OMe)GLAGPK-OH)	2.82 ± 0.86	3.95 ± 1.52	50.24 ± 11.94	did not show any significant changes	–	–	–	–
1.15	CNC(=O)C[C@H](NC(=O)[C@H](CCC(N)=O)NC(=O)CNC(=O)[C@@H]1C[C@@H](O)CN1)C(=O)NCC(=O)N[C@@H](CC(C)C)C(=O)N[C@@H](C)C(=O)NCC(=O)N1CCC[C@H]1C(=O)N[C@@H](CCCCN)C(=O)O [YDE-028] (H-[Hyp]GQD(NHMe)GLAGPK-OH)	4.04 ± 0.99	4.73 ± 1.18	41.17 ± 10.25	did not show any significant changes	–	–	–	–
2.77	CC(C)C[C@H](NC(=O)CNC(=O)[C@H](CC(C)C)NC(=O)[C@H](CCC(N)=O)NC(=O)CNC(=O)[C@@H]1C[C@@H](O)CN1)C(=O)N[C@@H](C)C(=O)NCC(=O)N1CCC[C@H]1C(=O)N[C@@H](Cc1ccc(O)cc1)C(=O)O [YDE-029] (H-[Hyp]GQLGLAGPY-OH)	–	–	–	–	5.33 ± 1.43	6.03 ± 1.71	did not show any significant changes	63.45 ± 11.57
2.74	CC(C)C[C@H](NC(=O)[C@@H]1CCCN1C(=O)CNC(=O)[C@H](C)NC(=O)[C@H](CC(C)C)NC(=O)CNC(=O)[C@H](CC(C)C)NC(=O)[C@H](CCC(N)=O)NC(=O)CNC(=O)[C@@H]1C[C@@H](O)CN1)C(=O)O [YDE-030] (H-[Hyp]GQLGLAGPL-OH)	–	–	–	–	5.69 ± 1.79	6.65 ± 2.17	did not show any significant changes	30.60 ± 13.61
34.82	CC(C)C[C@H](NC(=O)CNC(=O)[C@H](CC(C)C)NC(=O)[C@H](CCC(N)=O)NC(=O)CNC(=O)[C@@H]1C[C@@H](O)CN1)C(=O)N[C@@H](C)C(=O)NCC(=O)N1CCC[C@H]1C(=O)N[C@@H](CCC(=O)O)C(=O)O [YDE-031] (H-[Hyp]GQLGLAGPE-OH)	–	–	–	–	5.63 ± 1.97	5.91 ± 0.85	–	33.35 ± 11.01
6.16	CC(C)C[C@H](NC(=O)CNC(=O)[C@H](CC(C)C)NC(=O)[C@H](CCC(N)=O)NC(=O)CNC(=O)[C@@H]1C[C@@H](O)CN1)C(=O)N[C@@H](C)C(=O)NCC(=O)N1CCC[C@H]1C(=O)N[C@@H](CCC(N)=O)C(=O)O [YDE-032] (H-[Hyp]GQLGLAGPQ-OH)	–	–	–	–	5.58 ± 0.80	5.03 ± 0.93	did not show any significant changes	58.90 ± 19.81
